Data as given in patent publication US20020095001A1, “Methods and compositions for topical treatment of damaged tissue using reactive oxygen metabolite production or release inhibitors” (priority 1999, published 2002).

Assays:
[1] = tested on: pharyngotosillitis, a herpetic infection of the pharyngeal region; assay: Example 5: pharyngotonsillitis treated with a mouthwash; assay type: in vivo, human; conditions: mouthwash 0.05% by weight, five applications per day for seven days
Experimental: A subject suffering from pharyngotosillitis, a herpetic infection of the pharyngeal region is treated with a mouthwash containing the ROM inhibitory compound NADPH oxidase inhibitor […] in a concentration of 0.05% by weight of formulation. The treatment consists of five mouthwash applications per day for a period of seven days. The administration of […] was effective in treating the pharyngotosillitis of the subject.

NADPH oxidase = biological target: T1, NADPH oxidase (Homo sapiens, UniProt P04839); conditions: membrane bound oxidase of phagocytes, substrate preference; generally accepted; cited from earlier work
T1 construct: host or cells: phagocytes / neutrophils (background description)

thermal burn injuries = assay: Example 15: thermal burn injuries treated with a water-based gel; assay type: in vivo, human; conditions: water-based gel 0.007% by weight; every 10 minutes first hour, every 30 minutes next three hours, then as needed
Experimental: The compositions of the present invention are administered topically to a subject presenting thermal burn injuries. A water-based gel preparation containing of 0.007% by weight of the formulation of serotonin was administered to the subject's burn injuries. The treatment consisted of topical application of the gel to the burn site every 10 minutes for the first hour, then every 30 minutes for the next three hours. Topical applications thereafter are applied as needed by the subject in response to pain.

herpes genitalis = conditions: 0.07% by weight foam (vaginal) and cream (external), three times a day for five days
Experimental: Using an applicator, the foam is injected into the vaginal space to treat herpetic lesions therein. The cream is applied topically to external lesions. The cream and foam are applied three times a day for a period of five days.

herpes labialis [2] = conditions: 0.07% by weight lipstick, three times a day for five days
Excerpt: The treatment consists of topical application three times a day for a period of five days.

[3] = tested on: photodermatitis (second degree sunburn); conditions: aloe vera based gel such as SOOTH-A-CAINE containing 0.006% by weight
Excerpt: The ROM production and release inhibitory compound serotonin is used in a gel to treat a subject presenting photodermatitis (second degree sunburn) and attendant blister formation. The subject has blister formation as well as deep reddening of the epidermis on the back.

chemical burn injuries = conditions: water-based gel 0.007% by weight; every 10 minutes first hour, every 30 minutes next three hours, then as needed
Experimental: The compositions of the present invention are administered topically to a subject presenting chemical burn injuries. A water-based gel preparation containing of 0.007% by weight of the formulation of histamine dihydrochloride was administered to the subject's burn injuries. The treatment consisted of topical application of the gel to the burn site every 10 minutes for the first hour, then every 30 minutes for the next three hours. Topical applications thereafter are applied as needed by the subject in response to pain.

psoriasis of the scalp = tested on: psoriasis of the scalp
Experimental: A subject suffering from psoriasis of the scalp is treated with a shampoo containing approximately 0.008% by weight of histamine dihydrochloride. The subject undergoes UVB treatment in accordance with a protocol well known to those of ordinary skill in the art. In addition, the subject washes their hair once per day with the shampoo containing the ROM production and release inhibitory compound histamine.

[4] = tested on: chemical peel treated skin; conditions: solution 0.008% by weight, soaking five times daily after chemical peel
Excerpt: The solution is applied by soaking the treated five times daily to the treated area.

[5] = tested on: laser facial resurfacing treated skin; conditions: bandage with sterile solution 0.008% by weight five times daily, plus sunscreen 0.008% by weight
Excerpt: The bandage containing the sterile solution of histamine dihydrochloride is applied five times daily to the treated area. A sunscreen containing 0.008% by weight of histamine dihydrochloride is also applied before the subject is to be exposed to sunlight.

herpes labialis [6] = conditions: cream with 0.08% by weight, topical four to five times a day; compared to control cream group
Excerpt: Treatment of the subjects consists of the topical application of the medication four to five times a day at the lesion site.

periodontal disease = conditions: mouthwash and toothpaste, each 0.008% by weight, three times daily
Experimental: A subject presenting periodontal disease is treated with a mouthwash and toothpaste, each containing 0.008% by weight of histamine dihydrochloride. The subject brushes their teeth three times daily with the toothpaste for ten minutes. Following this cleansing, the subject washes their mouth with the mouthwash, rinses with water, and repeats. The treatment continues until the health of the periodontal tissue improves.

[7] = tested on: varicella-zoster virus (chicken pox) infection; conditions: child; paste 0.02% by weight five times per day and soap 0.1% by weight during bathing
Experimental: A child presenting the symptoms of chicken pox is treated with the compounds of the present invention. In this example, two products are used to treat the subject. […] The paste is applied five times per day until the vesicles have completely healed.

incision of the skin = conditions: formulation 0.0045% by weight with vitamin A 2000 IU, vitamin E 5000 IU and a topical antibiotic, twice a day
Experimental: The compositions of the present invention are administered topically to a subject presenting an incision of the skin. A formulation containing histamine dihydrochloride in a concentration of 0.0045% by weight of the formulation, vitamin A at 2000 IU, vitamin E at 5000 IU, and a topical antibiotic is applied to the wound following proper wound cleansing. Subsequent administration of the formulation occurs twice a day and with each change of wound dressing.

eczema = conditions: soap approx. 0.1% by weight once daily and lotion approx. 0.0055% by weight up to five times a day
Experimental: A subject presenting eczema is treated with a lotion and soap containing the ROM production and release inhibitory compound histamine dihydrochloride. The soap contains histamine in a concentration of approximately 0.1% by weight while the lotion contains histamine in a concentration of approximately 0.0055% by weight. The subject bathes with the soap once daily. The affected area is lathered well with the soap, rinsed, and the procedure is repeated. Following the bath, the lotion is applied up to five times throughout the day to the affected area.

[8] = tested on: herpes zoster or shingles lesions; conditions: ointment approx. 0.004% by weight four times a day plus subcutaneous histamine 10 μg/kg once per week
Experimental: A subject presenting herpes zoster or shingles lesions is treated with the compounds of the present invention in the form of an ointment. […] The ointment is administered topically to shingles lesions four times a day until the lesions completely heal. A subcutaneous injection of histamine at a concentration of 10 μg/kg of the subject is also administered. The injection is given once per week.

[9] = tested on: keratoconjunctivitis or a corneal herpes infection; conditions: ophthalmic solution 0.09% by weight with ZOVIRAX every three hours, plus solution without ZOVIRAX hourly
Experimental: A subject presenting keratoconjunctivitis or a corneal herpes infection is treated with the compositions of the present invention using an ophthalmic solution of histamine dihydrochloride at 0.09% by weight of formulation. Commercially available ophthalmic solutions are well known in the art. Additionally, the ophthalmic solution contains ZOVIRAX in an effective concentration. Application of the solution to the eye occurs every three hours. A solution containing only the ROM production and release inhibiting compound is given hourly to ease the discomfort of the subject.

herpes labialis [10] = conditions: cream 0.08% by weight five times a day together with ZOVIRAX; compared to ZOVIRAX alone
Experimental: The ability of the ROM production and release inhibition compounds of the present invention to increase the effectiveness of 9-(2-Hydroxyethoxymethyl)guanine, ZOVIRAX, (GlaxoWellcome) is evaluated in two groups of 10 subjects each. No subjects are suffering from active lesions at the initiation of the study. Group I subjects receive ZOVIRAX according to the dosage given by the manufacturer. […] Application of the cream continues during vesicle formation and until the vesicles have completely healed. Subjects in both groups are instructed to topically apply the product five times a day at the lesion site.
Subjects participating in the study are instructed to monitor the size and duration of the lesions during the herpetic episode.

c1ccc2c(c1)[I+]c1ccccc1-2 [diphenlyeneiodonium]
effectiveness in treating the pharyngotosillitis [1]: effective

NC(=O)C1=CN([C@@H]2O[C@H](COP(=O)(O)OP(=O)(O)OC[C@H]3O[C@@H](n4cnc5c(N)ncnc54)[C@H](OP(=O)(O)O)[C@@H]3O)[C@@H](O)[C@H]2O)C=CC1 [NADPH]
Km (NADPH oxidase): 45 µM

NCCc1c[nH]c2ccc(O)cc12 [serotonin]
discomfort of the subject (thermal burn injuries): reduces the discomfort | healing of the burn injuries (thermal burn injuries): promotes healing

histamine diphosphate
healing time of the ruptured herpetic vesicles (herpes genitalis): reduced the healing time | healing time of the ruptured herpetic vesicles (herpes labialis [2]): reduced the healing time

NC(=O)C1=CN([C@@H]2O[C@H](COP(=O)(O)OP(=O)(O)OC[C@H]3O[C@@H](n4cnc5c(N)ncnc54)[C@H](O)[C@@H]3O)[C@@H](O)[C@H]2O)C=CC1 [NADH]
Km (NADPH oxidase): 450 µM

NCCc1c[nH]cn1 [histamine]
blistering and amount of skin sloughed off as a result of the irradiation [3]: decrease in blistering and the amount of skin sloughed off | discomfort in the subject [3]: reduction of discomfort

Cl.Cl.NCCc1c[nH]cn1 [histamine dihydrochloride]
discomfort of the subject (chemical burn injuries): reduces the discomfort | healing of the burn injuries (chemical burn injuries): promotes healing | rate of reduction in symptoms (psoriasis of the scalp; shampoo approx. 0.008% by weight once per day with UVB, compared to UVB treatment alone): reduction in symptoms at a greater rate | irritation of the affected area (psoriasis of the scalp; shampoo approx. 0.008% by weight once per day, with UVB treatment): reduces the irritation of the affected area | rate of healing [4]: rate of healing is increased | rate of healing [5]: rate of healing is increased | healing time of herpetic lesions (herpes labialis [6]): decrease in healing time | rate of healing (periodontal disease): rate of healing is increased | healing of vesicles [7]: causes the vesicles to heal rapidly | level of discomfort experienced by the subject [7]: decreases the level of discomfort | healing of the incision (incision of the skin): promotes healing of the incision | scar formation (incision of the skin): reduces scar formation | general condition of the skin in the affected area (eczema): increase in the general condition of the skin | symptoms of eczema (eczema): decrease in the symptoms | time required for the healing of the herpetic lesions [8]: reduces the time required for the healing | damage caused by the viral outbreak [9]: reduces | discomfort of the patient [9]: reduces the discomfort of the patient | time period of viral activity [9]: reduces the time period of viral activity | size of the herpetic lesions forming during the outbreak period (herpes labialis [10]): decrease in the size of the herpetic lesions
